{
  "source": "patent US11534448B2",
  "about": "“Use of canagliflozin in preparation of antitumor drug” (ZHEJIANG UNIVERSITY, priority 2019, dated 2022)",
  "type_in_all_cases": "cell-based, human",
  "key": {"[1]": {"test_system": "PD-L1", "assay": "Western blotting of PD-L1 total protein expression in tumor cells", "details": "canagliflozin 20 μM + IFNγ 10 ng/mL, 24 h, FIG. 1", "procedure": "Multiple human tumor cells, non-small cell lung cancer H1299 cells and osteosarcoma MG63 cells, were selected and respectively inoculated in 6-well plates (1.0×10^6 cells/well), and incubated overnight in incubator at 37° C. with 5% CO2. On the next day, each plate was added with canagliflozin (20 μM) and γ-interferon (IFNγ, 10 ng/mL), and after 24 hours, the cells were collected and lysed to extract the proteins. The expression of PD-L1 in the cells were detected by Western blotting."}, "[2]": {"test_system": "PD-L1", "assay": "Flow cytometry of PD-L1 expression on cell surfaces", "details": "canagliflozin 20 μM + IFNγ 10 ng/mL, 24 h, FIG. 2", "procedure": "Two human tumor cell lines, non-small cell lung cancer H1299 cells and osteosarcoma MG63 cells, were selected and respectively inoculated in 6-well plates (1.0×10^6 cells/well), and incubated overnight in incubator at 37° C. with 5% CO2. On the next day, each plate was added with canagliflozin (20 μM) and γ-interferon (IFNγ, 10 ng/mL), and after 24 hours, the PD-L1 expressions on the cell surfaces were detected with flow cytometry."}, "[3]": {"test_system": "PD-L1", "assay": "PD-L1 protein stability (cycloheximide chase, Western blotting, gray-scale analysis)", "details": "H1299 cells; IFNγ 10 ng/mL 24 h, then CHX (10 g/mL) + canagliflozin 20 μM vs CHX alone; 0-12 h; FIG. 3", "procedure": "The non-small cell lung cancer H1299 cells were inoculated in 6-well plates (1.0×10^6 cells/well), and incubated overnight in incubator at 37° C. with 5% CO2. On the next day, the plates were first added with γ-interferon (IFNγ, 10 ng/mL), and after 24 hours, a protein synthesis inhibitor cycloheximide (CHX, […]) or a co-administration group of CHX ([…])+canagliflozin (20 μM) was administrated simultaneously for these plates. After 0 h, 2 h, 4 h, 6 h, 8 h, and 12 h, respectively, the cells were collected to detect the change of the protein level of PD-L1 in the cells by Western blotting, and a gray-scale analysis was performed to plot a curve for investigating the protein stability."}, "[4]": {"test_system": "non-small cell lung cancer H1299 cells", "assay": "Killing effect of activated T cells on co-incubated tumor cells (crystal violet staining)", "details": "H1299 cells treated with canagliflozin 20 μM + IFNγ 10 ng/mL for 24 h, PD-L1 antibody drug as positive control, FIG. 4", "procedure": "(§1) PBMC cells were isolated from human blood samples using Ficoll separation solution, and then stimulated with CD3 and CD28 for 3 days to activate T cells in PBMC, and in the meantime, interleukin-2 (IL-2, 50 U/uL) was administrated to maintain the growth of T cells. The activated T cells were co-incubated with the tumor cells that had been treated with canagliflozin (20 μM) and γ-interferon (IFNγ, 10 ng/mL) for 24 hours. A PD-L1 antibody drug was used as a positive control. The killing effect of T cells on tumor cells was investigated, and a crystal violet staining method was employed to investigate the killing effect of T cells on tumor cells."}, "[5]": {"test_system": "osteosarcoma MG63 cells", "assay": "Killing effect of activated T cells on co-incubated tumor cells (crystal violet staining)", "details": "MG63 cells treated with canagliflozin 20 μM + IFNγ 10 ng/mL for 24 h, PD-L1 antibody drug as positive control, FIG. 4", "procedure": "as §1"}, "[6]": {"details": "non-small cell lung cancer H1299 cells"}},
  "data": [
    {"smiles": "Cc1ccc([C@@H]2O[C@H](CO)[C@@H](O)[C@H](O)[C@H]2O)cc1Cc1ccc(-c2ccc(F)cc2)s1", "note": "[canagliflozin, (1S)-1,5-anhydro-1-C-[3-[[5-(4-fluorophenyl)-2-thienyl]methyl]-4-methylphenyl]-D-glucitol]", "values": [
      {"measurement": "PD-L1 total protein expression", "setting": "[1]; [6]", "value": "significantly inhibited the PD-L1 total protein expression"},
      {"measurement": "PD-L1 total protein expression", "setting": "[1]; osteosarcoma MG63 cells", "value": "significantly inhibited the PD-L1 total protein expression"},
      {"measurement": "PD-L1 protein expression on the cell surface", "setting": "[2]; [6]", "value": "significantly inhibited the PD-L1 protein expression on the tumor cell surfaces"},
      {"measurement": "PD-L1 protein expression on the cell surface", "setting": "[2]; osteosarcoma MG63 cells", "value": "significantly inhibited the PD-L1 protein expression on the tumor cell surfaces"},
      {"measurement": "degradation of the PD-L1 protein", "setting": "[3]", "value": "significantly promoted the degradation of the PD-L1 protein"},
      {"measurement": "killing effect of T cells on tumor cells", "setting": "[4]", "value": "significantly enhanced the killing effect of T cells on tumor cells"},
      {"measurement": "killing effect of T cells on tumor cells", "setting": "[5]", "value": "significantly enhanced the killing effect of T cells on tumor cells"}
    ]}
  ]
}
